Tests used:
[1] = for mass density / viscosity: 298.15 K, 101.3 kPa; for mass density / viscosity / vapor or sublimation pressure: Liquid; for viscosity: Capillary tube (Ostwald / Ubbelohde) method; for vapor or sublimation pressure: Ebulliometric method (Recirculating still)
[2] = refractive index (Na D-line) (dimensionless); conditions: 298.15 K; 101.33 kPa; Liquid; Standard Abbe refractometry
[3] = xn = mol fraction of the nth substance listed; conditions: 298.15 K, 101 kPa, Liquid; for viscosity: Capillary tube (Ostwald / Ubbelohde) method
[4] = refractive index (Na D-line) (dimensionless); xn = mol fraction of the nth substance listed; conditions: 298.15 K, 101 kPa, Liquid, Standard Abbe refractometry

CC(O)CO (stereo not given) [1,2-propanediol]
Conditions | mass density [kg/m3] | refractive index | viscosity [mPa·s]
[1] | 1031.6 | – | 44.45
[2] | – | 1.4313 | –

[1]
Conditions | vapor or sublimation pressure [kPa]
378 K | 4
398.24 K | 10
402.54 K | 12
415.13 K | 20
425.72 K | 30
433.59 K | 40
439.9 K | 50
445.2 K | 60
449.79 K | 70
453.84 K | 80
457.48 K | 90
460.79 K | 100

CC(O)CO (stereo not given) [1,2-propanediol] + CC1COC(=O)O1
x1 = 1
Conditions | mass density [kg/m3] | refractive index | viscosity [mPa·s]
[3] | 1031.6 | – | 44.45
[4] | – | 1.4313 | –

CC1COC(=O)O1 (stereo not given) [4-methyl-1,3-dioxolan-2-one]
Conditions | mass density [kg/m3] | refractive index | viscosity [mPa·s]
[1] | 1199.4 | – | 2.39
[2] | – | 1.4198 | –

[1]
Conditions | vapor or sublimation pressure [kPa]
407.97 K | 4
432.45 K | 10
437.77 K | 12
453.6 K | 20
467.23 K | 30
477.53 K | 40
485.91 K | 50

CC1COC(=O)O1 (stereo not given) [4-methyl-1,3-dioxolan-2-one] + CC(O)CO
Conditions | mass density, [3] [kg/m3] | refractive index, [4] | viscosity, [3] [mPa·s]
x2 = 0 | 1199.4 | 1.4198 | 2.39
x2 = 0.01 | – | – | 2.534
x2 = 0.05 | 1190.9 | 1.4199 | 2.436
x2 = 0.1 | 1182.4 | 1.4199 | –
x2 = 0.2 | 1166.4 | 1.4207 | 2.921
x2 = 0.3 | 1150.2 | 1.4213 | 3.55
x2 = 0.4 | 1134.2 | 1.4223 | 4.758
x2 = 0.5 | 1117.9 | 1.4235 | 6.071
x2 = 0.6 | 1101.6 | 1.4249 | 8.461
x2 = 0.7 | 1085.1 | 1.4264 | 11.82
x2 = 0.8 | 1068 | 1.4278 | 17.38
x2 = 0.9 | 1050.6 | 1.4294 | 27.54
x2 = 0.9499 | 1041.4 | 1.4305 | 35.66

CCOC(=O)CCC(=O)OCC [diethyl butanedioate]
Conditions | mass density [kg/m3] | refractive index | viscosity [mPa·s]
[1] | 1035.5 | – | 2.393
[2] | – | 1.4179 | –

[1]
Conditions | Normal melting temperature [°C] | vapor or sublimation pressure [kPa]
392.46 K | – | 4
417.39 K | – | 10
423.15 K | – | 12
437.53 K | – | 20
453.15 K | – | 30
462.1 K | – | 40
467.78 K | – | 50
Crystal | -21.52 | –
